Patent publication US20230295201A1 (Gilead Sciences, Inc., priority 2020, published 2023)
Read-outs that look alike come from different tables or passages of the source.

What was measured:
RSV strain A2 = experiment: RSV HEp-2 EC50 (infectious cytopathic cell protection assay); format: cell-based; settings: HEp-2 cells, RSV A2, 4 days, read-out: RSV HEp-2 EC50
Summary of the method: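 Percent inhibition of RSV-induced cytopathic effect came from remaining cell viability (CellTiter-Glo luminescence) after 4 days at 37° C. Compounds in 3-fold serial dilutions were exposed to an infectious mix of titered A2 virus and HEp-2 cells at 50,000/ml, with 0% and 100% inhibition control standards.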

HRV1a = experiment: HRV1A HELA EC50 (cytopathic effect in H1-HeLa cells); format: cell-based; settings: 96 h, read-out: HRV1A HELA EC50
Method: (§1) H1-HeLa cells, cultured in complete RPMI 1640 medium containing 10% heat-inactivated FBS and 1% Penicillin/Streptomycin, were seeded in 96 well plates at 5000 cells/well one day prior to compound dosing and infection. The antiviral activity of each compound was measured in triplicate. Compounds were added directly to the cell cultures in serial 3-fold dilutions using the HP300 digital dispenser (Hewlett Packard, Palo Alto, CA) immediately prior to infection. The plates were transferred to BSL-2 containment and 100 μL of 1/4000 dilution of HRV1a virus stock was added to each well containing cells and serially diluted compounds. Each plate included 6 wells of infected untreated cells and 6 wells of cells containing 5 μM Rupintrivir that served as 0% and 100% virus inhibition control, respectively. Following the infection, test plates were incubated for 96 h in a tissue culture incubator set to 37° C./5% CO2. Following incubation, the H1-HeLa cells were removed from incubation and allowed to equilibrate to 25° C. Cell viability was determined by removing 100 μL of culture medium and adding 100 μL of Cell-Titer Glo viability reagent. The mixtures were incubated on a shaker for 10 minutes at 25° C., and the luminescence signal was quantified on an Envision luminescence plate reader.

HRV99 = HRV99 EC50; format: cell-based
HRV16 = HRV16 HELA EC50 (cytopathic effect in H1-HeLa cells); format: cell-based; settings: 96 h, H1-HeLa cells, 33° C., read-out: HRV16 HELA EC50
Summary of the method: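 Read-out is luminescent cell viability (CellTiter-Glo) after 96 h of infection at 33 °C, scaled between uninfected and infected-untreated wells. Before infection with titrated virus, compounds went onto H1-HeLa cells as triplicate 3-fold dilution series.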

RSV A2 = experiment: RSV NHBE EC50 (RSV A2 antiviral assay in normal human bronchial epithelial cells); format: cell-based; settings: NHBE cells, RSV A2, 4 days, read-out: RSV NHBE EC50
HRV10 = HRV10 HELA EC50; format: cell-based
HRV14 = HRV14 HELA EC50 (cytopathic effect in H1-HeLa cells); format: cell-based; settings: 96 h, read-out: HRV14 HELA EC50
Method: as §1, with “HRV14” for “HRV1a”

[1] = tested on: Dengue serotype 2 New Guinea C (NGC) strain; experiment: DENV-2 Huh-7 EC50 (qPCR in Huh7 cells); format: cell-based; settings: Dengue virus, DENV2, Huh-7, 48 h
Method: Huh7 (Human hepatocarcinoma 7) cells were maintained in 10% FCS-containing DMEM complete media. On the day of the assay, cells were trypsinized (0.1% Trypsin-EDTA), washed and infected for 2 hours in serum-free DMEM with Dengue serotype 2 New Guinea C (NGC) strain at MOI=0.1 with gentle agitation at 37° C. After 2 hours, cells were washed with serum-free media and suspended in 10% FCS-containing DMEM (Gibco, supplemented with sodium pyruvate, NEAA, Penicillin-Streptomycin). 10^5 cells were plated in triplicate in 96-well plates with compounds dispensed at graded doses (Hewlett-Packard D300 Digital Dispenser). All wells were normalized to 0.25% DMSO. At 48 hours, cells were washed with 1×PBS and all supernatants removed. Total RNA was extracted using RNEasy 96 plates (Qiagen) and used to generate first-strand cDNA using XLT cDNA 5×Supermix (QuantaBio). cDNA was used as a template in a Taqman qPCR duplex reaction specific to DENV2 viral and GAPDH gene expression. EC50 values were determined using Prism Graphpad software, with normalization to a positive control and no compound negative control wells.

RSV A strain A2 = experiment: RSV HAE EC50 (intracellular RSV RNA by real-time PCR in HAE cells); format: cell-based; settings: read-out: RSV HAE EC50
Method: HAE cells are cultured at the air-liquid interface and have an apical side that is exposed to the air and a basal side that is in contact with the medium. Prior to experimentation, HAE were removed from their agar-based shipping packaging and were acclimated to 37° C./5% CO2 overnight in 1 ml of HAE Assay medium (AIR-100-MM, Mattek Corp). HAE were prepared for infection by washing the apical surface twice with 400 μL of PBS (either utilizing direct pipetting methods or by running each transwell through a trough containing PBS) to remove the mucus layer. Apical chambers were drained of PBS and tapped gently onto absorbent material to remove as much PBS as possible. After washing, the cells were transferred to fresh HAE maintenance media containing 4-fold serially diluted compound, delivered to the basal side of the cell monolayer, and apically infected with 100 μL of a 1:600 dilution of RSV A strain A2 1000× stock (ABI, Columbia, MD, cat #10-124-000) in HAE assay medium for 3 hours at 37° C. in 5% CO2. The virus inoculum was removed and the apical surface of the cells was washed 3 times with PBS using either method previously described. The cells were then cultured in the presence of compound for 3 days at 37° C. Following the incubation, total RNA was extracted from the HAE cells using a MagMAX-96 Viral RNA isolation kit (Applied Biosystems, Foster City, CA, Cat #AM1836) and intracellular RSV RNA was quantified by real-time PCR. Approximately 25 ng of purified RNA was added to a PCR reaction mixture that contained 0.9 μM RSV N Forward and RSV N Reverse primers, 0.2 μM RSV N Probe and 1×Taqman RNA-to-Ct 1-Step Kit (Applied Biosystems, Foster City, CA, Cat #4392938). RNA levels were normalized using a Tagman GAPDH control primer set (Applied Biosystems, Foster City, CA, Cat #402869). Real-Time PCR Primers and Probe Used in the RSV A2 HAE Antiviral Assay: […]

DENV2 replicon = experiment: DENV-2 Huh-7 Rep EC50 (replicon luminescence); format: cell-based; settings: Dengue virus, DENV2, Huh-7, 48 h, Huh-7 replicon cells, 48 hours; read-out: DENV-2 Huh-7 Rep EC50
Summary of the method: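 EC50 derived from luminescence dose-response, normalised to DMSO-only 0% inhibition wells, after 1.5 h with EnduRen substrate. Compounds were first exposed for 48 h at 37° C to DENV2 replicon Huh-7 cells (5,000/well).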

[2] = HEp-2 CC50 (cytotoxicity, Cell-Titer Glo); format: cell-based; settings: human; uninfected HEp-2 cells, 4-5 days
Method: The same protocol as for the determination of antiviral activity is used for the measurement of compound cytotoxicity except that the cells are not infected with RSV. Instead, an uninfected cell mixture at the same density is added at 20 ul/well to plates containing prediluted compounds, also at 100 nL/sample. Assay plates are then incubated for 4 days followed by a cell viability test using the same CellTiter Glo reagent addition and measurement of luminescent readouts.

in vitro [3] = settings: human
Method: HEp-2 (1.5×10^3 cells/well) and MT-4 (2×10^3 cells/well) cells were plated in 384-well plates and incubated with the appropriate medium containing 3-fold serially diluted compound ranging from 15 nM to 100,000 nM. Cells were cultured for 4-5 days at 37° C. Following the incubation, the cells were allowed to equilibrate to 25° C., and cell viability was determined by adding Cell-Titer Glo viability reagent. The mixture was incubated for 10 min, and the luminescence signal was quantified using an Envision plate reader. Untreated cell and cells treated at 2 μM puromycin (Sigma, St. Louis, MO) serve as 100% and 0% cell viability control, respectively.

in vitro [4] = settings: human; remark: listed apart in the source
[5] = human respiratory syncytial virus, HEp-2, 96 h
[6] = human respiratory syncytial virus, NHBE, 96 h

C[C@H](NP(=O)(OC[C@@]1(C#N)O[C@@H](c2ccc3c(N)ncnn23)[C@H](O)[C@@H]1O)Oc1ccccc1)C(=O)OCC1CCC1 (mixture of isomers) [Example 2, (2S)-cyclobutylmethyl 2-(((((2R,3S,4R,5S)-5-(4-aminopyrrolo[2,1-f][1,2,4]triazin-7-yl)-2-cyano-3,4-dihydroxytetrahydrofuran-2-yl)methoxy)(phenoxy)phosphoryl)amino)propanoate] showed an EC50 (RSV strain A2; [5]) of 56 nM, an EC50 (HRV1a) of 106 nM and an EC50 (HRV99) of 708 nM. The EC50 (HRV16) was 353 nM, the EC50 (RSV A2; [6]) was 122 nM and the EC50 (HRV10) was 114 nM. The EC50 (HRV14) was 340 nM.
With C[C@H](NP(=O)(OC[C@@]1(C#N)O[C@@H](c2ccc3c(N)ncnn23)[C@H](O)[C@@H]1O)Oc1ccccc1)C(=O)OC1CCCCCCC1 (single isomer, unassigned) [Example 173] the EC50 [1] was 1210 nM, the EC50 (RSV strain A2) was 156 nM and the EC50 (RSV A strain A2; human respiratory syncytial virus, HAE, 72 h) was 22 nM. For the same compound, the EC50 (RSV A2) was 282 nM.
In the case of CC(C)C(=O)O[C@H]1[C@H](c2ccc3c(N)ncnn23)O[C@](C#N)(CO[P@@](=O)(N[C@@H](C)C(=O)OC2CCCCC2)Oc2ccccc2)[C@H]1O (single isomer, unassigned) [Example 205], the EC50 (RSV strain A2; [5]) is reported as 101 nM, the EC50 (DENV2 replicon) is reported as 6100 nM and the CC50 [2] is reported as 58600 nM. For the same compound, the EC50 (HRV16) was 417 nM and the EC50 (RSV A2; [6]) was 27 nM.
In the case of CC(C)C(=O)O[C@H]1[C@@H](O)[C@H](c2ccc3c(N)ncnn23)O[C@]1(C#N)CO[P@@](=O)(N[C@@H](C)C(=O)OC1CCCCC1)Oc1ccccc1 (single isomer, unassigned) [Example 206], the EC50 (RSV strain A2; [5]) is reported as 85 nM, the CC50 [2] is reported as 55200 nM and the EC50 (RSV A2; [6]) is reported as 62 nM. It also gave a CC50 (in vitro [3]) of 16600 nM.
Work on CC(C)OC(=O)[C@H](C)N[P@](=O)(OC[C@@]1(C#N)O[C@@H](c2ccc3c(N)ncnn23)[C@H](OC(=O)C(C)(C)C)[C@@H]1O)Oc1ccccc1 (single isomer, unassigned) [Example 238] yielded an EC50 (RSV strain A2; [5]) of 91 nM, an EC50 (DENV2 replicon) of 9710 nM and a CC50 [2] of over 50000 nM. For the same compound, the EC50 (HRV16) was 731 nM, the CC50 (in vitro [4]) was over 50000 nM and the EC50 (RSV A2; [6]) was 41 nM. For the same compound, the CC50 (in vitro [3]) was 45000 nM.
Compound CC(C)OC(=O)[C@H](C)N[P@](=O)(OC[C@@]1(C#N)O[C@@H](c2ccc3c(N)ncnn23)[C@H](O)[C@@H]1OC(=O)C(C)(C)C)Oc1ccccc1 (single isomer, unassigned) [Example 239] has an EC50 (RSV strain A2; [5]) of 148 nM, an EC50 (DENV2 replicon) of 25400 nM and a CC50 [2] of over 50000 nM. For the same compound, the EC50 (HRV16) was 1120 nM, the CC50 (in vitro [4]) was over 50000 nM and the EC50 (RSV A2; [6]) was 54 nM. For the same compound, the CC50 (in vitro [3]) was over 50000 nM.
CC(C)OC(=O)[C@H](C)N[P@](=O)(OC[C@@]1(C#N)O[C@@H](c2ccc3c(N)ncnn23)[C@H](O)[C@@H]1OC(=O)C(C)C)Oc1ccccc1 (single isomer, unassigned) [Example 241] showed an EC50 (RSV strain A2; [5]) of 293 nM, an EC50 (DENV2 replicon) of 15500 nM and a CC50 [2] of over 50000 nM. For the same compound, the EC50 (RSV A2; [6]) was 190 nM and the CC50 (in vitro [3]) was over 50000 nM.
In the case of CC1CCC(OC(=O)C(C)NP(=O)(OCC2(C#N)OC(c3ccc4c(N)ncnn34)C(O)C2O)Oc2ccccc2)CC1 (stereo not drawn) [Example 143], the EC50 (RSV strain A2) is reported as 142 nM, the EC50 (RSV A strain A2; HAE cells, RSV A2, 3 days) is reported as 157 nM and the EC50 (RSV A2) is reported as 53 nM.
With CCOC(=O)[C@H](C)N[P@](=O)(OC[C@@]1(C#N)O[C@@H](c2ccc3c(N)ncnn23)[C@@H]2OC(OCC)O[C@@H]21)Oc1ccccc1 (stereo partly drawn) [Example 233, ethyl ((S)-(((3aS,4R,6S,6aS)-6-(4-aminopyrrolo[2,1-f][1,2,4]triazin-7-yl)-4-cyano-2-ethoxytetrahydrofuro[3,4-d][1,3]dioxol-4-yl)methoxy)(phenoxy)phosphoryl)-L-alaninate] the EC50 (RSV strain A2; [5]) was 1750 nM, the EC50 (DENV2 replicon) was 35800 nM and the CC50 [2] was over 50000 nM. For the same compound, the EC50 (HRV16) was 3350 nM and the EC50 (RSV A2; [6]) was over 4640 nM.
Compound COC(=O)[C@H](C)N[P@](=O)(OC[C@@]1(C#N)O[C@@H](c2ccc3c(N)ncnn23)[C@H](OC(=O)C(C)C)[C@@H]1O)Oc1ccccc1 [Example 250, (2S,3R,4S,5R)-2-(4-aminopyrrolo[2,1-f][1,2,4]triazin-7-yl)-5-cyano-4-hydroxy-5-((((S)—(((S)-1-methoxy-1-oxopropan-2-yl)amino)(phenoxy)phosphoryl)oxy)methyl)tetrahydrofuran-3-yl isobutyrate] has an EC50 (RSV strain A2; [5]) of 69 nM, a CC50 [2] of over 50000 nM and an EC50 (HRV16) of 1180 nM. It also gave an EC50 (RSV A2; [6]) of 51 nM.
